Test results from patent US6015877A, “Compounds for inhibition of proteolysis” (President and Fellows of Harvard College, priority 1996, dated 2000).
Several values for one entry are separate records, joined by “and”; a condition that tells them apart may be missing. Equal values may be shown once. Entries after “also recorded” stand apart in the source; their conditions may differ. Read-outs that look alike come from different tables or passages of the source. Blank lines part the entries; values can stand above or below the compound they belong to. *1 amine or outer side, *2 acyl side, *3 side chain or, on linkers, in order; H or OH if unused. Where a SMILES comes first, the peptide text is derived from it. Where no end group is shown, it is not given here. [ ]: non-standard residue; d: D form. The star is where a group is joined. Farnesyl = CC(C)=CCC/C(C)=C/CC/C(C)=C/C*; CO = O=C([*:1])[*:2]

Key:
[1] = system: isoprenylated protein endoprotease; assay: Inhibition of the solubilized / partially purified enzyme by non-halomethyl ketone inhibitors; format: biochemical, bovine
[2] = system: isoprenylated protein endoprotease; assay: Inhibition of the isoprenylated protein endoprotease by halomethyl ketones (preincubation, 20-fold dilution, Kitz-Wilson); format: biochemical, bovine; conditions: for enzyme activity (%): diluted 20-fold, control 100; for inhibition / inactivation of the endoprotease (in words): solubilized endoprotease
Experimental: A typical procedure of inhibition is given here to illustrate the details of this procedure. A CHAPSO-solubilized protein preparation (2.5 mg/mL) or a partially […] protein preparation (0.17 mg/mL) was incubated with chloromethyl ketone inhibitors at 37° C. for 30 minutes. Aliquots were removed at timed intervals and diluted with assay buffer E for the solubilized preparation of with assay buffer D for the partially purified protein preparation in 20-fold. The final protein and substrate concentrations were 0.12 mg/mL (or 8.5 μg of partially purified protein preparation per milliliter) and 2.0 μM, respectively, except as otherwise noted; the residual enzyme activity was assayed as described above. TPCK and BFC-CMK were characterized by kinetic measurements. The bimolecular rate constant Kinh /K1 and pseudo-first-order kinetic rate constant Kinh were obtained using the Kitz-Wilson method (Kitz & Wilson, 1962). According to Kitz-Wilson method, the irreversible modification of an enzyme by an active-site directed inhibitor is given by [drawing 9] where K1 =[E]·[I]/[E·I] and -d([E]+[E·I])/dt=Kinh [E·I]. [I] and [E] are inhibitor and enzyme concentrations at a certain time, respectively. Under conditions here [I]>>[Eo ], which is the enzyme concentration at time zero, [I] is constant. Under conditions where the enzyme-inhibitor solution is extensively diluted before the assay, a simplified equation 2 can be obtained as follows: […]
To further establish the specificity of the inactivation process, several commercially available haloketones were studies as putative inactivators of the endoprotease. The structures of these analogs are shown and their activities are shown in Table V. In these studies, the solubilized protein material was preincubated with a chloromethyl ketone inhibitor at 284 μM (unless otherwise noted) for 30 minutes; then 2.5-μL aliquots of the incubated solution were taken and diluted 20-fold for assay of the residual enzyme activity. […] Save for the dipeptide derivatives (ZGGFCMK and ZAPFCMK) derived from TPCK, the other halomethyl ketones tested are virtually inert.
FIG. 16(A) Time-dependent inhibition. 16B Kitz-Wilson plot (the upper panel) for the inhibition of the isoprenylated protein endoprotease by TPCK. The inhibition studies were carried out at 37° C. using the solubilized endoprotease preparation. Aliquote of the inhibitor-enzyme solution were taken at interval times and diluted by a factor of 20, and the enzyme activity was assayed as described in Methods. (B) (the lower panel) the concentration-dependent inhibition of the endoprotease by TPCK. The inhibition studies were carried out at 37° C. The crude CHAPSO-solubilized endoprotease preparations (0.12 mg/mL) were preincubated for 60 min in 50 μL of buffer E in the presence of 284 μM TPCK or TLCK with 6% DMSO and 2% 2-propanol. After the incubation, the reaction solution was diluted by a factor of 20, and the remaining enzyme activity of the inhibitor-enzyme solution was assayed as described in Methods. Data were represented in mean from duplicate runs.

[3] = system: membrane-bound isoprenylated protein endoprotease; conditions: cited from earlier work
[4] = system: protease of bovine liver microsomal membranes (isoprenylated protein endoprotease); assay: Proteolysis of N-[3H]acetyl isoprenylated peptide substrates by calf liver microsomal membranes (N-[3H]-AFC formation, HPLC); conditions: for activity as substrate (Table 1, words): 10 mM, prolonged incubation time (16 hours), detection limit 1.13 pmol/min/mg
[5] = target: T1, cysteine protease apopain (Homo sapiens, UniProt P42574); conditions: cited from earlier work
T1 sequence (P42574 29-175 limits assumed): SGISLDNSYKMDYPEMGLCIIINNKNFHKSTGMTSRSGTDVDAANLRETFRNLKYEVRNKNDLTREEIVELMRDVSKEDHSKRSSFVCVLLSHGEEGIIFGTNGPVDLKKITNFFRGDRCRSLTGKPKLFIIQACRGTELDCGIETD
T1 sequence (P42574 176-277 limits assumed): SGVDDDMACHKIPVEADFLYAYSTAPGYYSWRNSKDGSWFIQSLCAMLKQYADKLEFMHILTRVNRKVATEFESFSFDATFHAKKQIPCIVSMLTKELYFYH

[6] = target: T2, cysteine protease ICE (interleukin-1β converting enzyme) (Homo sapiens, UniProt P29466); conditions: cited from earlier work
T2 sequence (P29466 120-297 limits assumed): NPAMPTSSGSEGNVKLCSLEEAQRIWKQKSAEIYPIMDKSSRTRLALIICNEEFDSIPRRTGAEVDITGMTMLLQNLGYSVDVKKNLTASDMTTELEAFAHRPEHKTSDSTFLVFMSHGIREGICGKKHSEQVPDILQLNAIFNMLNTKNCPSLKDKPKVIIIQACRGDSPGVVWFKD
T2 sequence (P29466 317-404 limits assumed): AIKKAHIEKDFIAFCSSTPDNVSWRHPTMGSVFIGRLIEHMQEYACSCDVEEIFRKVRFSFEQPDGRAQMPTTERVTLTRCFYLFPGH

[7] = 284 μM inhibitor, solubilized protein preincubated 30 minutes
[8] = Kitz-Wilson plot using the partially purified enzyme preparation
[9] = calf liver microsomal membranes
[10] = Table 1, same enzyme preparation, average of two determinations ±S.D.

- enzyme activity (%) detergent extract ([1]; inhibitor 5 mM, control 100): 108 ± 8%
Compound: O[C@H](CS)[C@H](O)CS (racemic) [DTT, Dithiothreitol]
- effect on the solubilized enzyme's activity (in words) ([1]; 1-5 mM): Neither DTT (1-5 mM) nor glycerol (20%) affects the enzyme's activity

- enzyme activity (%) [2, 7]: 27 ± 2%
- Ki ([2]; Kitz-Wilson plot using the partially purified enzyme preparation, read-out: K1): 30 µM and ~30 µM
Compound: CC(C)=CCC/C(C)=C/CC/C(C)=C/CSC[C@H](NC(=O)OC(C)(C)C)C(=O)CCl (stereo in doubt) [BFCCMK, N-Boc-S-all-trans-Farnesyl-L-cysteine Chloromethyl Ketone]
- Kinh (s^-1) [2, 8]: (5.9 ± 0.4) × 10^-3 s^-1
- Kinh /K1 [2, 8]: 19.4 M⁻¹ s⁻¹ and 19.4 ± 1 M⁻¹ s⁻¹
- increase of the second-order rate constant ([2]; compared with TPCK): 15 fold
- inhibition / inactivation of the endoprotease (in words) [2]: good inhibitors; also recorded: quite a potent inactivator of the endoprotease; also recorded: most potent inactivator of the endoprotease; also recorded: much more potent inactivator of the endoprotease than TPCK

Compound: CC(C)=CCC/C(C)=C/CC/C(C)=C/CSC[C@@H](C=O)NC(=O)OC(C)(C)C (stereo in doubt) [N-Boc-S-all-trans-farnesyl-L-cysteine Aldehyde]
- inhibition of the enzyme (in words) ([3]; Ma et al., 1993): fairly potent competitive inhibitor

Compound: CC(=O)N[C@@H](CSC/C=C(\C)CC/C=C(\C)CCC=C(C)C)C(N)=O [AFC amide]
- substrate activity (in words) [4, 9]: not a substrate for the enzyme

Compound: N=C(N)c1ccc(CS(=O)(=O)F)cc1 [APMSF, 4-(amidinophe-nyl)methanesulfonyl fluoride]
- inhibition of the endoprotease (in words) [3]: not inhibited

Compound: CC(C)C[C@H](NC(=O)[C@@H](NC(=O)N[C@@H](Cc1ccccc1)C(=O)O)[C@@H]1CCN=C(N)N1)C(=O)N[C@H](C=O)Cc1ccccc1 [Chymostatin]
- inhibition of the endoprotease (in words) ([1]; 0.33 mM): not inhibited
- enzyme activity (%) detergent extract ([1]; inhibitor 0.33 mM, control 100): 104 ± 8%
- enzyme activity (%) partially purified ([1]; inhibitor 0.33 mM, control 100): 99 ± 1%
- enzyme activity (%) partially purified ([1]; inhibitor 0.33 mM, control 100, listed as chymostatin): not inhibited

Compound: CCN1C(=O)C=CC1=O [N-ethylma-leimide]
- inhibition of apopain (in words) [5]: inhibited

Compound: O=C(O)c1cc[c]([Hg][Cl])cc1 [PCMB, p-chloromercuribenzoate]
- inhibition of the endoprotease ([3]; 0.5 mM, membrane-bound enzyme): 41%
- partially purified enzyme activity inhibited ([1]; 5 μM, partially purified enzyme): 67%
- enzyme activity (%) detergent extract ([1]; 0.5 mM PCMB, then +5 mM DTT (regenerated activity)): 44 ± 4% and 44%
- regeneration of the inhibited activity after extensive dialysis and dilution (in words) ([1]; detergent extract inhibited by 0.5 mM PCMB): no regeneration of the inhibited activity was observed
- enzyme activity (%) partially purified ([1]; inhibitor 5 μm, control 100): 33 ± 3%
- inhibition of ICE (in words) [6]: inactivated

Compound: O=S(=O)(F)Cc1ccccc1 [PMSF, phenylmethanesulfonyl fluoride]
- inhibition of the endoprotease (in words) ([1]; 1 mM): not inhibited
- enzyme activity (%) detergent extract ([1]; inhibitor 1 mM, control 100): 93 ± 3%

Compound: CC(C)[C@H](NC(=O)[C@H](CCCNC(=N)N)NC(=O)N[C@@H](Cc1ccccc1)C(=O)O)C(=O)N[C@H](C=O)CCCNC(=N)N [antipain] ({Phe-CO}-Arg-Val-Arg-aldehyde)
- inhibition of ICE (in words) [6]: insensitive

Compound: OCC(O)CO [glycerol]
- effect on the solubilized enzyme's activity (in words) ([1]; 20%): Neither DTT (1-5 mM) nor glycerol (20%) affects the enzyme's activity

Compound: CC(=O)N[C@@H](CC(C)C)C(=O)N[C@@H](CC(C)C)C(=O)N[C@H](C=O)CCCNC(=N)N [leupeptin]
- inhibition of the endoprotease (in words) ([3]; 1.0 μM): not inhibited

Compound: N-Ac-S-all-trans-farnesyl-D-Cys-L-Val-L-Ile [AFC--Val--Ile (6)]
- activity as substrate (Table 1, words) [4]: inactive

- enzyme activity (%) [2, 7]: 44 ± 1%
Compound: N-Benzyloxycarbonylglycylglycyl-S-all-trans-farnesyl-L-cysteine Chloromethyl Ketone [ZGGFCCMK]
- inhibition / inactivation of the endoprotease (in words) [2]: good inhibitors

- Km [4, 10]: 4.01 ± 0.4 µM
- Km [4, 9]: 14.6 µM
Compound: N-[^3 H-Acetyl-S-all-trans-geranylgeranyl-L-Cys-L-Val-L-ile [AGGC--Val--Ile (2)]
- Vmax [4, 10]: 26.20 ± 0.97 pmol/min/mg
- Vmax [4, 9]: 19.35 pmol/min/mg
- substrate activity (in words) [4, 9]: good substrates

Compound: N-[^3 H]-Acetyl-L-Cys-L-Val-L-Ile [Cys--Val--Ile (4)]
- activity as substrate (Table 1, words) [4]: inactive
- substrate activity (in words) [4, 9]: Neither analog was measurably processed

Compound: N-[^3 H]-Acetyl-S-all-trans-geranylgeranyl-D-cys-L-Val-L-Ile [AGGC--Val--Ile (2) D--L--L]
- activity as substrate (Table 1, words) [4]: inactive
- substrate activity (in words) [4, 9]: no measurable protease activity

Compound: N-[^3 H]-Acetyl-S-thio-t-butyl-L-Cys-L-Val-L-Ile [t-butylthio-Cys--Val--Ile (5)]
- activity as substrate (Table 1, words) [4]: inactive
- substrate activity (in words) [4, 9]: Neither analog was measurably processed

Compound: N-[^3 H]-acetyl-S-all-trans-farnesyl-L-Cys-L-Val-D-Ile [AFC--Val--Ile (8)]
- activity as substrate (Table 1, words) [4]: inactive
- substrate activity (in words) [4, 9]: did not have substrate activity

Compound: N-[^3 H]-acetyl-S-all-trans-farnesyl-L-Cys-L-Val-L-Ile-D-Met ({(3H)‑acetyl}-C(Farnesyl)VI[dM]) [AFC--Val--Ile--Met (10)]
- activity as substrate (Table 1, words) [4]: weakly active (detectable activity is observed under prolonged incubation periods, but the activity is <5% that observed with AFC-V-I-S)
- substrate activity (in words) [4, 9]: processed to some extent

Compound: N-acetyl-S-all-trans-farnesyl-D-Cys-D-Val-L-Ile [D-D-L]
- substrate activity (in words) [4, 9]: inactive

Compound: N-acetyl-S-all-trans-farnesyl-L-Cys-D-Val-L-Ile [AFC--Val--Ile (7)]
- activity as substrate (Table 1, words) [4]: inactive
- substrate activity (in words) [4, 9]: did not have substrate activity

Compound: N-acetyl-S-trans-geranyl-D-Cys-L-Val-Ile [AGC--Val--Ile (3) D--L--L]
- activity as substrate (Table 1, words) [4]: inactive
- substrate activity (in words) [4, 9]: no measurable protease activity

- Km [4, 10]: 14.6 ± 2.14 µM
Compound: N-acetyl-S-trans-geranyl-L-Cys-L-Val-L-Ile [AGC--Val--Ile (3)]
- Vmax [4, 10]: 19.35 ± 1.12 pmol/min/mg
- substrate activity (in words) [4, 9]: good substrates

Compound: Nα-tosyl-L-lysine chloromethyl ketone [TLCK]
- enzyme activity (%) ([2]; 1000 μM inhibitor, solubilized protein preincubated): 94 ± 15%
- inhibition / inactivation of the endoprotease (in words) [2]: did not inhibit the enzyme activity; also recorded: does not inhibit the enzyme activity
- inhibition of apopain (in words) [5]: not

Compound: aprotinin
- inhibition of the endoprotease (in words) ([3]; 0.6 μM): not inhibited

Compound: bis(p-nitro-phenyl)phosphate [BNPP]
- inhibition of the endoprotease (in words) ([1]; 1 mM): not inhibited
- enzyme activity (%) detergent extract ([1]; inhibitor 1 mM, control 100): 100 ± 8%

Compound: β-(2-naphthyl)-L-alanine chloromethyl ketone [2-Nal-Ala-CMK]
- enzyme activity (%) [2, 7]: 53 ± 1%
- inhibition / inactivation of the endoprotease (in words) [2]: inhibit the endoprotease well
